Source: the supplement of paper PMC10307832

How the values were obtained:
Experiment in all cases: relative viability (nuclei count vs DMSO), 5 days (fraction); higher = more cells survive
[1] = compound: CS(=O)(=O)N1CCN(Cc2cc3nc(-c4cccc5[nH]ncc45)nc(N4CCOCC4)c3s2)CC1 [Pictilisib] + CCNC(=O)c1noc(-c2cc(C(C)C)c(O)cc2O)c1-c1ccc(CN2CCOCC2)cc1 [Luminespib] (partner 0.01 µM)
Method in brief: (§1)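 Medians of duplicate plates are given as relative viability. That measure is the nuclei count in treated wells divided by the count in vehicle wells. Counts were taken on 4× images of lung cancer cell lines in 1536-well plates, 5 days after pin-tool dosing the day after seeding with one drug alone or a fixed anchor-drug dose plus five library-drug doses (not always all listed) in √10 steps.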

[2] = compound: CS(=O)(=O)N1CCN(Cc2cc3nc(-c4cccc5[nH]ncc45)nc(N4CCOCC4)c3s2)CC1 [Pictilisib] + CS(=O)(=O)CCNCc1ccc(-c2ccc3ncnc(Nc4ccc(OCc5cccc(F)c5)c(Cl)c4)c3c2)o1 [Lapatinib] (partner 2 µM)
Method in brief: as §1

[3] = compound: CS(=O)(=O)N1CCN(Cc2cc3nc(-c4cccc5[nH]ncc45)nc(N4CCOCC4)c3s2)CC1 [Pictilisib] + Nc1ncn([C@H]2C[C@H](O)[C@@H](CO)O2)c(=O)n1 [Decitabine] (partner 2 µM)
Method in brief: as §1

[4] = compound: NC1(c2ccc(-c3nc4ccn5c(=O)[nH]nc5c4cc3-c3ccccc3)cc2)CCC1 [MK-2206] + CS(=O)(=O)CCNCc1ccc(-c2ccc3ncnc(Nc4ccc(OCc5cccc(F)c5)c(Cl)c4)c3c2)o1 [Lapatinib] (partner 2 µM)
Method in brief: as §1

Cell Line | relative viability ([1]; first compound 0.02 µM) | relative viability ([1]; first compound 0.06325 µM) | relative viability ([1]; first compound 0.6325 µM) | relative viability ([1]; first compound 2 µM) | relative viability ([2]; first compound 0.02 µM) | relative viability ([2]; first compound 0.06325 µM) | relative viability ([2]; first compound 0.6325 µM) | relative viability ([2]; first compound 2 µM) | relative viability ([3]; first compound 0.02 µM) | relative viability ([3]; first compound 0.06325 µM) | relative viability ([3]; first compound 0.6325 µM) | relative viability ([3]; first compound 2 µM) | relative viability ([4]; first compound 0.01 µM) | relative viability ([4]; first compound 0.03162 µM) | relative viability ([4]; first compound 0.3162 µM) | relative viability ([4]; first compound 1 µM)
NCI-H2023 | 0.936 | 0.753 | 0.286 | 0.103 | 0.78 | 0.611 | 0.349 | 0.243 | 0.211 | 0.2 | 0.215 | 0.148 | 0.827 | 0.818 | 0.708 | 0.492
NCI-H2085 | 0.44 | 0.431 | 0.409 | 0.265 | 0.767 | 0.767 | 0.535 | 0.391 | 0.521 | 0.631 | 0.511 | 0.369 | 0.773 | 0.81 | 0.605 | 0.467
NCI-H2087 | 0.138 | 0.144 | 0.19 | 0.165 | 1.12 | 0.926 | 1.06 | 0.952 | 0.212 | 0.344 | 0.189 | 0.151 | 1.03 | 1.41 | 1.07 | 0.805
NCI-H2126 | 0.847 | 0.852 | 0.646 | 0.421 | 0.801 | 0.748 | 0.63 | 0.462 | 0.559 | 0.57 | 0.473 | 0.494 | 0.803 | 0.739 | 0.75 | 0.737
NCI-H2170 | 0.715 | 0.65 | 0.419 | 0.166 | 0.285 | 0.306 | 0.226 | 0.245 | 0.46 | 0.445 | 0.462 | 0.366 | 0.312 | 0.276 | 0.263 | 0.258
NCI-H2347 | 0.444 | 0.518 | 0.423 | 0.264 | 0.86 | 0.973 | 0.992 | 0.729 | 0.663 | 0.658 | 0.579 | 0.502 | 0.845 | 1.06 | 0.887 | 0.953
NCI-H2405 | 0.694 | 0.611 | 0.416 | 0.235 | 1.2 | 1.05 | 0.801 | 0.505 | 0.765 | 0.72 | 0.571 | 0.388 | 1.07 | 1.19 | 0.809 | 0.859
NCI-H3122 | 0.0804 | 0.107 | 0.0795 | 0.0927 | 1.01 | 1.15 | 1.13 | 0.737 | 0.443 | 0.412 | 0.287 | 0.115 | 1.01 | 1.07 | 1.06 | 1.1
PC-3 [JPC-3] | 0.604 | 0.775 | 0.509 | 0.462 | 0.439 | 0.461 | 0.426 | 0.319 | 0.84 | 0.92 | 0.813 | 0.748 | 0.469 | 0.457 | 0.437 | 0.441
PC-14 | 0.162 | 0.151 | 0.141 | 0.123 | 0.34 | 0.302 | 0.236 | 0.113 | 0.245 | 0.254 | 0.302 | 0.322 | 0.297 | 0.316 | 0.287 | 0.221
RERF-LC-KJ | 1.23 | 1.29 | 1 | 0.855 | 0.86 | 0.842 | 0.771 | 0.549 | 0.711 | 0.618 | 0.54 | 0.479 | 0.871 | 0.902 | 0.723 | 0.787
SK-LU-1 | 0.227 | 0.193 | 0.168 | 0.178 | 0.977 | 0.792 | 0.665 | 0.481 | 0.612 | 0.695 | 0.559 | 0.525 | 0.91 | 0.861 | 0.822 | 0.967
SK-MES-1 | 0.748 | 0.702 | 0.279 | 0.219 | 0.468 | 0.41 | 0.389 | 0.27 | 0.351 | 0.388 | 0.359 | 0.339 | 0.461 | 0.452 | 0.429 | 0.38
SW 1573 | 0.185 | 0.196 | 0.187 | 0.189 | 1.12 | 1.28 | 0.89 | 0.55 | 0.688 | 0.587 | 0.354 | 0.285 | 0.88 | 1.15 | 0.987 | 0.982
